Legend:
Pseudomonas CH07 [1] = assay: Degradation of PCB congeners of Clophen A-50 by Pseudomonas CH07 in seawater nutrient broth, GC-ECD analysis; conditions: for Degradation Of PCBs: 40 hrs incubation with Pseudomonas CH07, versus control; for Conc. of PCBs in Test sol. (incubation) 40 hrs.: incubation with Pseudomonas CH07 for 40 hrs, Clophen A-50 100 ppm in seawater nutrient broth
Protocol: A defined seawater nutrient broth medium (code no. 088 from Himedia, Bombay) containing beef extract 3 g L^−1, peptic digest of animal tissue 5 g L^−1 was used. One liter of medium contained 500 ml seawater and 500 ml distilled water and the final pH was adjusted to 7 using 0.1 N NaOH. After autoclaving, the required amount of stock solution (10,000 ppm) of Clophen A-50 was added to the medium in sterile condition to achieve a final concentration of 100 ppm. Immediately after adding the stock PCBs solution, the hexane part of it was evaporated out by gently swirling the flask in sterile condition and sterile glycerol was added to the medium in a 1:1 ratio of stock solution:glycerol. 40 μl of 24 hold culture of Pseudomonas CH07 growths was added in two replicates of 20 ml of test (seawater nutrient broth+Clophen A-50) medium to seawater nutrient broth (without any addition of Clophen A-50). Controls in duplicate were also maintained without the addition of the organism at room temperature (ca. 28°±2° C.). Control and test cultures were maintained at room temperature for two days and at various predecided intervals of time, the samples was taken out aseptically and prepared for GC analysis. The details of the sample preparation is described below.
The PCBs were analyzed following the method described by Boon et al. The method was standardized in our laboratory using the PCBs standards obtained from Promochem, Germany as well as other analytical grade chemicals from E. Merck. The purity of the solvents was checked by Gas chromatography for each of the bottles. The different adsorbents, alumina, silica, were purified by soxhlet extraction with di-chloro-methane (HPLC grade) for about eight hours. The anhydrous Na2SO4 and the glass wool were also purified by Soxhlet extraction with HPLC grade di-chloro methane. The different steps of the analytical methods are illustrated below:
i. Aliquot of 1 ml sample was treated with 1 ml n-hexane (HPLC grade) thrice and thoroughly mixed by a vortex mixture for five minutes each time. The upper part of the solvent layer (solvent extract) was separated with the help of micropipette and transferred to a sterilized glass tube.
ii. Concentrate the solvent extract to 1 ml by evaporation with Snyder column evaporator on a water bath at 85° C.
iii. Purify of the solvent extract by alumina clean up using micro-column technique.
iv. Concentrate the solvent extract to 1 ml by evaporation with Snyder column evaporator on a water bath at 85° C.
v. Isolate PCBs from polar chlorinated compounds by eluting through micro-column of silica.
vi. Concentrate the PCBs fraction to 1 ml by evaporation with Snyder column evaporator on a water bath at 85° C.
vii. Analyze the aliquot by GC-ECD with reference to standard PCBs (individual congeners).
The samples were analyzed by gas chromatography (Varian GC-3380) coupled with an electron capture detector and an autosampler 8200. Capillary column VA-5 (30 m×0.25 mm) was employed with electron capture detector […] for peak detection. Argon with 5% methane was the carrier gas. A temperature program was used (table. 3). […] The experimental condition of the instrument is illustrated in the table-4. The analysis of PCBs was calibrated using the standards for individual congeners of PCBs obtained from Promochem, Germany. Using different dilutions of the stock solution of the standards carried out the calibration of each of the individual congeners. The linearity of the calibration curve was determined with a range of dilution of the mix-standards.

Pseudomonas CH07 [2] = assay: Taxonomical characteristics: growth of Pseudomonas CH07 on antibiotics; format: cell-based; design: key: −: negative response (no growth); +: positive response (slight or moderate growth); ++: very good response (good growth); conditions: Table 1, taxonomical tests

Compound	Degradation Of PCBs (Pseudomonas CH07 [1]) [%]	Conc. of PCBs in Test sol. (incubation) 40 hrs. (Pseudomonas CH07 [1]) [ng/mL]	Growth on (Response) (Pseudomonas CH07 [2])
Clc1ccc(-c2ccc(Cl)c(Cl)c2)cc1Cl [CB-77, 3,3′,4,4′-tetrachlorobiphenyl]	24.25	40.42	
Clc1cc(Cl)c(-c2cccc(Cl)c2Cl)cc1Cl [CB-97, 2,2′,3′,4,5-Pentachloro]	19.69		
Clc1ccc(Cl)c(-c2cc(Cl)c(Cl)cc2Cl)c1 [CB-101, 2,2′,4,5,5′-Pentachloro]	20.19		
Clc1ccc(-c2ccc(Cl)c(Cl)c2Cl)cc1Cl [CB-105, 2,3,3′,4,4′-Pentachloro]	46.69		
Clc1c(Cl)c(Cl)c(-c2ccccc2)c(Cl)c1Cl [CB-116, 2,3,4,5,6-Pentachloro]	20.04	8.06	
Clc1ccc(-c2cc(Cl)c(Cl)cc2Cl)cc1Cl [CB-118, 2,3′,4,4′,5-Pentachloro]	40.72		
Clc1cc(Cl)c(-c2ccc(Cl)c(Cl)c2)c(Cl)c1 [CB-119, 2,3′,4,4′,6-Pentachloro]	19.66	6.48	
Clc1ccc(-c2cc(Cl)c(Cl)c(Cl)c2)cc1Cl [CB-126, 3,3′,4,4′,5-Pentachloro]	100	00.00	
Clc1ccc(-c2ccc(Cl)c(Cl)c2Cl)c(Cl)c1Cl [CB-128, 2,2′,3,3′,4,4′-Hexachloro]	64.33		
Clc1cc(Cl)c(-c2ccc(Cl)c(Cl)c2Cl)cc1Cl [CB-138, 2,2′,3,4,4′,5′-Hexachloro]	55.97		
Clc1ccc(Cl)c(-c2cc(Cl)c(Cl)c(Cl)c2Cl)c1 [CB-141, 2,2′,3,4,5,5′-Hexachloro]	55.38		
Clc1ccc(Cl)c(-c2c(Cl)c(Cl)cc(Cl)c2Cl)c1 [CB-151, 2,2′,3,5,5′,6-Hexachloro]	37.32		
Clc1cc(Cl)c(-c2cc(Cl)c(Cl)c(Cl)c2Cl)cc1Cl [CB-180, 2,2′,3,4,4′,5,5′-Heptachloro]	61.33		
Clc1ccc(-c2c(Cl)c(Cl)c(Cl)c(Cl)c2Cl)c(Cl)c1 [CB-181, 2,2′,3,4,4′,5,6-Heptachloro]	100		
CN(C)[C@@H]1C(O)=C(C(N)=O)C(=O)[C@@]2(O)C(O)=C3C(=O)c4c(O)ccc(Cl)c4[C@@H](O)[C@H]3C[C@@H]12 [Demechlocyclin]			++
NC[C@H]1O[C@H](O[C@H]2[C@H](O)[C@@H](O[C@H]3O[C@H](CO)[C@@H](O)[C@H](N)[C@H]3O)[C@H](N)C[C@@H]2N)[C@H](O)[C@@H](O)[C@@H]1O [Kanamycin]			++
[H]/N=C(/N)N[C@H]1[C@H](O)[C@@H](O)[C@H](O[C@@H]2O[C@@H](C)[C@](O)(C=O)[C@H]2O[C@@H]2O[C@@H](CO)[C@H](O)[C@@H](O)[C@@H]2NC)[C@@H](N/C(N)=N\[H])[C@@H]1O [Streptomycin]			++
CN(C)[C@@H]1C(O)=C(C(N)=O)C(=O)[C@@]2(O)C(O)=C3C(=O)c4c(O)cccc4[C@@](C)(O)[C@H]3C[C@@H]12 [Tetracycline]			++
Neomycin			++

Source: patent publication US6544773B1, “Microbial process for degradation of PCBS in clophen A-50 using a novel marine microorganism, Pseudomonas CH07” (priority 2001, dated 2003)
